# Measurements reported in publication PMC7504466, “In-Vitro and In-Silico Evaluations of Heterocyclic-Containing Diarylpentanoids as Bcl-2 Inhibitors Against LoVo Colorectal Cancer Cells” (Molecules, 2020).
# Assays:
# Bcl-xL = assay: Western blot, Bcl-xL; type: cell-based, human; details: 5 µM, LoVo cells, up to 72 h
# Protocol: (§1) Lovo cells (1.5 × 10^4 cells/cm^2) were seeded in a T75 flask and incubated at 37 °C and 5% CO2 atmosphere overnight. The seeded cells were then treated with selected compounds at 5 µM of 2e for 24 h, 48 h, and 72 h. After treatment, the cells were harvested and lysed with phenylmethanesulfonyl fluoride (PMSF)-containing cell lysis buffer. The lysates were then centrifuged at 13,300× g for 15 min and the supernatant was collected. Protein concentrations of all samples were determined using a BCA assay kit (Thermo Scientific Inc., Waltham, MA, USA). Equal amounts of protein were electrophoresed in 12% and 20% SDS-polyacrylamide gel (SDS-PAGE), and electro-transferred onto a 0.22-μm polyvinyldene difluoride membrane. Each membrane was blocked with 5% (w/v) skim milk at room temperature for 1 h followed by overnight incubation with specific primary antibodies (1:1000) at 4 °C. Subsequently, the respective membrane was washed thrice with TBST (0.05% (v/v) of tween-20) followed by 1 h incubation with secondary antibody (1:10,000). Upon completion, the membrane was washed thrice with 1X Tris-Buffered Saline, 0.1% Tween® 20 Detergent (TBST) and the immune reactive bands were developed using SuperSignal West Dura Extended Duration Substrate (Thermo Scientific Inc., Waltham, MA, USA). […]
# cleaved caspase-7 = assay: Western blot, cleaved caspase-7; type: cell-based, human; details: 5 µM, LoVo cells, after 24 h
# Protocol: as §1
# SW620 cells = assay: MTT cytotoxicity assay, SW620 cells; type: cell-based; details: Homo sapiens, SW-620, 72 h post-treatment, read-out: IC50 (µM) KRAS SW620
# Protocol: (§2) The in-vitro cytotoxic activity of the synthesized compounds on seven human CRC cell lines including KRAS (T84, SW620, LoVo) and BRAF (HT29, NCI-H508, RKO and LS411N) mutated cells were determined by MTT assay as previously described. The IC50 values obtained are summarized in Table 2 in which 5-FU and normal human dermal fibroblasts (NHDF) were used as controls. Meanwhile, a heatmap (Figure 3) was also generated using GraphPad Prism v7.0 (GraphPad Software, La Jolla, CA, USA) to visualize the cytotoxic trends of synthesized compounds graphically.
# (§3) A panel of KRAS (T84, SW620 and LoVo) and BRAF (HT29, NCI-H508, RKO and LS411N) mutated human CRC cell lines were grown in Dulbecco’s modified Eagle’s medium (DMEM) containing 10% fetal bovine serum (FBS) and 1% penicillin/streptomycin at 37 °C under 5% CO2 while NHDF cells were cultured in DMEM with 5% FBS under the same condition. The culture medium was replenished every two days until the cells reached 80–90% confluency for further usage. All cell lines (T84, ATCC®CCL-248™; SW620, ATCC®CCL-227™; LoVo, ATCC®CCL-229™; HT-29, ATCC®HTB-38; NCI-H508, ATCC®CCL-253™; RKO, ATCC®CRL-2577; LS411N, ATCC®CRL-2159; NHDF, ATCC® PCS-201-010™) were purchased from American Type culture Collections (ATCC, Manassas, VA, USA).
# (§4) LoVo cells (1.5–5 × 10^3 cells/well) were seeded into a 96 well plate and incubated at 37 °C and 5% CO2 atmosphere for 24 h. On the following day, the cell media were replaced with 100 µL of test compounds at various concentration. The final concentration of DMSO in the well is 0.1%. After 72 h of incubation, culture medium was removed and 100 µL of MTT (thiazoyl blue tertrazolium bromide) solution (0.5 mg/mL in culture media) was added. The resultant plates were then further incubated at 37 °C for 4 h. Upon completion, the MTT solution was removed and the formazan salts formed were dissolved in 100 µL of DMSO. The absorbance was recorded with a microplate reader at 570 nm. The IC50 values of tested compounds were calculated from three independent experiments.
# HT29 cells = assay: MTT cytotoxicity assay, HT29 cells; type: cell-based; details: Homo sapiens, HT-29, 72 h post-treatment, read-out: IC50 (µM) BRAF HT29
# Protocol: as §2, §3, §4
# LoVo cells [1] = assay: Morphological inspection; type: cell-based, human; details: 0.625-5 µM, 24 h post-treatment
# Protocol: LoVo cells (5 × 10^4 cells/well) were seeded into a 12 well plate and incubated at 37 °C and 5% CO2 atmosphere for 24 h. Next, the culture media were replaced with 1 mL of test compounds at various concentration and further incubated for 24 h. The final concentration of DMSO in the well is 0.1%. The morphological changes of compound-treated cells were photographed using a fluorescent microscope.
# LoVo cells [2] = assay: Measurement of intracellular ROS levels (DCFH-DA, flow cytometry); type: cell-based, human; details: 5 µM
# Protocol: LoVo cells (1 × 10^5 cells/well) were seeded into a 6-well plate and incubated at 37 °C and 5% CO2 atmosphere overnight. After incubation, the seeded cells were treated with 1 mL of 10 µM DCFDA in culturing media for 1 h. Upon completion, the cells were washed twice with PBS followed by treatments with 5 µM of selected compounds for 24, 48 and 72 h. Then, the treated cells were harvested, washed and re-suspended in PBS followed by flow-cytometric analysis at the FITC channel.
# [3] = test system: normal human dermal fibroblasts (NHDF); assay: MTT cytotoxicity assay, normal human dermal fibroblasts; type: cell-based; details: 72 h post-treatment
# Protocol: as §2, §3, §4
# cleaved PARP = assay: Western blot, cleaved PARP; type: cell-based, human; details: 5 µM, LoVo cells, after 24 h
# Protocol: as §1
# RKO cells = assay: MTT cytotoxicity assay, RKO cells; type: cell-based; details: Homo sapiens, 72 h post-treatment, read-out: IC50 (µM) BRAF RKO
# Protocol: as §2, §3, §4
# Bax = assay: Western blot, Bax; type: cell-based, human; details: 5 µM, LoVo cells, detectable only after 48 h
# Protocol: as §1
# caspase-9 = assay: Western blot, cleaved caspase-9; type: cell-based, human; details: 5 µM, LoVo cells
# Protocol: as §1
compound,measurement,setting,value
"O=C1C(=Cc2ccccc2Br)CSCC1=Cc1ccccc1Br [Compound 2e, 3,5-Bis(2-bromobenzylidene)tetrahydro-4H-thiopyran-4-one]",Bcl-xL expression,Bcl-xL,remained unaffected
same,cleaved caspase-7 level,cleaved caspase-7,increased
same,IC50,SW620 cells,1.4 µM
same,IC50,HT29 cells,2.1 µM
same,morphology of treated LoVo cells,LoVo cells [1],shrink from an epithelial-like shape to a round shape
same,cellular ROS level,LoVo cells [2]; 24 h,rapid increment in cellular ROS level
same,cellular ROS level,LoVo cells [2]; 48 h and 72 h,secondary increment of cellular ROS
same,IC50,[3],7100 nM
same,cleaved PARP level,cleaved PARP,increased
same,IC50,RKO cells,1.2 µM
same,Bax expression,Bax,up-regulation
same,caspase-9 cleavage,caspase-9,activate the cleavage of caspase-9
